According to the NIST ThermoML archive (doi:10.1021/je900404r):

How the values were obtained:
[1] = 101 kPa, Liquid, Vibrating tube method
[2] = xn = mol fraction of the nth substance listed; conditions: 101 kPa, Liquid, Vibrating tube method

O=C1CCCCC1 [cyclohexanone]
[1]
Conditions | mass density [kg/m3]
288.15 K | 951.69
298.15 K | 942.76
308.15 K | 933.8
318.15 K | 924.82

O=C1CCCCC1 [cyclohexanone] + CC(Cl)(Cl)Cl
[2], x2 = 0
Conditions | mass density [kg/m3]
288.15 K | 951.69
298.15 K | 942.76
308.15 K | 933.8
318.15 K | 924.82

O=C1CCCCC1 [cyclohexanone] + CCCCCl
[2], x2 = 0
Conditions | mass density [kg/m3]
288.15 K | 951.69
298.15 K | 942.76
308.15 K | 933.8
318.15 K | 924.82

O=C1CCCCC1 [cyclohexanone] + ClC(Cl)C(Cl)Cl
[2], x2 = 0
Conditions | mass density [kg/m3]
288.15 K | 951.69
298.15 K | 942.76
308.15 K | 933.8
318.15 K | 924.82

O=C1CCCCC1 [cyclohexanone] + ClC(Cl)Cl
[2], x2 = 0
Conditions | mass density [kg/m3]
288.15 K | 951.69
298.15 K | 942.76
308.15 K | 933.8
318.15 K | 924.82

O=C1CCCCC1 [cyclohexanone] + ClCCCCCl
[2], x2 = 0
Conditions | mass density [kg/m3]
288.15 K | 951.69
298.15 K | 942.76
308.15 K | 933.8
318.15 K | 924.82

O=C1CCCCC1 [cyclohexanone] + ClCCCCl
[2], x2 = 0
Conditions | mass density [kg/m3]
288.15 K | 951.69
298.15 K | 942.76
308.15 K | 933.8
318.15 K | 924.82

O=C1CCCCC1 [cyclohexanone] + ClCCCl
[2], x2 = 0
Conditions | mass density [kg/m3]
288.15 K | 951.69
298.15 K | 942.76
308.15 K | 933.8
318.15 K | 924.82

ClC(Cl)Cl [trichloromethane]
[1]
Conditions | mass density [kg/m3]
288.15 K | 1491.86
298.15 K | 1473.16
308.15 K | 1454.07
318.15 K | 1434.72

ClC(Cl)Cl [trichloromethane] + O=C1CCCCC1
mass density [kg/m3], [2]
Conditions | x1 = 0.1198 | x1 = 0.2362 | x1 = 0.305 | x1 = 0.4235 | x1 = 0.5103 | x1 = 0.6047 | x1 = 0.6953 | x1 = 0.8109 | x1 = 0.9089 | x1 = 1
288.15 K | 1004.15 | 1058.19 | 1091.64 | 1151.88 | 1198.22 | 1250.45 | 1303.06 | 1372.1 | 1433.35 | 1491.86
298.15 K | 994.58 | 1047.93 | 1080.94 | 1140.29 | 1185.89 | 1237.16 | 1288.8 | 1356.3 | 1416.12 | 1473.16
308.15 K | 984.97 | 1037.61 | 1070.16 | 1128.62 | 1173.48 | 1223.78 | 1274.42 | 1340.36 | 1398.68 | 1454.07
318.15 K | 975.32 | 1027.25 | 1059.32 | 1116.88 | 1160.97 | 1210.28 | 1259.9 | 1324.23 | 1381.01 | 1434.72
